This is an account of results in PMC10641818, “Development of First-in-Class Dual Sirt2/HDAC6 Inhibitors as Molecular Tools for Dual Inhibition of Tubulin Deacetylation” (Journal of Medicinal Chemistry, 2023).

Assay [1] concerns HGC27 gastric carcinoma cells. Kind of assay: Cell viability assay (MTS) HGC27. The assay is classed as cell-based. The note with it: Homo sapiens, HGC-27, 72 h. Put shortly: (§1)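 HGC27 and PC-3M-luc cells (2000/well) were read by MTS after compound in 0.5% DMSO. W1 (10^4/well) and MCF-7 (2 × 10^3/well) were given half-log dilutions for 72 h, then MTT for 1 h, with absorbance at 570 nm minus 690 nm. Viability was fitted to a four-parameter logistic curve.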

Another assay concerns the target T1, HDAC6 (Homo sapiens, UniProt Q9UBN7).
T1 sequence (Q9UBN7 1-1215): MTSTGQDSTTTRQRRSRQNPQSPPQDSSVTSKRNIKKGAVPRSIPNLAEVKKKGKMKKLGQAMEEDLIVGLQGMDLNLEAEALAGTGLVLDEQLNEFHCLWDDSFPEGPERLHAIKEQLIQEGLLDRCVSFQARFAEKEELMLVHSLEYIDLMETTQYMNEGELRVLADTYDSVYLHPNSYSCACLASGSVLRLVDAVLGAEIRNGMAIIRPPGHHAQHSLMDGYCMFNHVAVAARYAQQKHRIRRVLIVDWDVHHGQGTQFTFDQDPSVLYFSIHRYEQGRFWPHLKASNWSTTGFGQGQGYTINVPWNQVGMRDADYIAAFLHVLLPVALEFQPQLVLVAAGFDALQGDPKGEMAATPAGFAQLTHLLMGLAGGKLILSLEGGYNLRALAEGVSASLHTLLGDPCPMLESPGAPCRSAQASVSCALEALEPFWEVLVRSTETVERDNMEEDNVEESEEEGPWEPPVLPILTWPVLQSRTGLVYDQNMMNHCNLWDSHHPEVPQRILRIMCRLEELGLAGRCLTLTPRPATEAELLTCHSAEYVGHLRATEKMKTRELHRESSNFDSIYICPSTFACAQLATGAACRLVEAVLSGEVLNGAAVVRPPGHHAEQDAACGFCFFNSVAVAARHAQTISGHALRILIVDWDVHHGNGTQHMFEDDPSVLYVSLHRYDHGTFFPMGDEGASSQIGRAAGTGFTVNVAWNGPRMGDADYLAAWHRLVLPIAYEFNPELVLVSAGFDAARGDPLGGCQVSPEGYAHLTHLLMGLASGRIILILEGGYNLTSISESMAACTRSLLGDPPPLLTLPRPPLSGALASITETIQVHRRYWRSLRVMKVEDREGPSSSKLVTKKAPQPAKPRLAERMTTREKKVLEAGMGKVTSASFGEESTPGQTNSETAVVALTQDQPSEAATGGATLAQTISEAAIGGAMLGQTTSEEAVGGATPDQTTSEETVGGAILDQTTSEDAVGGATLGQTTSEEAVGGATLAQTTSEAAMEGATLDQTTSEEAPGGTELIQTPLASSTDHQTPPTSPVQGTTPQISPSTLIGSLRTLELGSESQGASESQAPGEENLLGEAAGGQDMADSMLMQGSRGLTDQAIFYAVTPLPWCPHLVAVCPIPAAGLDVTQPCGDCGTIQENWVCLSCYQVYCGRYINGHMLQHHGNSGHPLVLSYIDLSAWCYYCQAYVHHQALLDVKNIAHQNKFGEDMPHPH
Kind of assay: HDAC6 in vitro deacetylation assay (ZMAL). The class given is biochemical. The arrangement: purchased BPS Bioscience 50006.

The test system of assay [2] is MCF-7 breast cancer cells. Kind of assay: Cell viability assay (MTT) MCF-7. As to conditions: Homo sapiens, MCF7, 72 h. The class given is cell-based. In a few lines: as §1
In the next assay the target is T2, Sirt3 (Homo sapiens, UniProt Q9NTG7).
T2 construct: the respective sirtuin (Sirt1_134–747, Sirt2_56–356, or Sirt3_118–395) was mixed with; made in house; host or cells: Escherichia coli BL21 Star (DE3)
T2 sequence (Q9NTG7 118-395): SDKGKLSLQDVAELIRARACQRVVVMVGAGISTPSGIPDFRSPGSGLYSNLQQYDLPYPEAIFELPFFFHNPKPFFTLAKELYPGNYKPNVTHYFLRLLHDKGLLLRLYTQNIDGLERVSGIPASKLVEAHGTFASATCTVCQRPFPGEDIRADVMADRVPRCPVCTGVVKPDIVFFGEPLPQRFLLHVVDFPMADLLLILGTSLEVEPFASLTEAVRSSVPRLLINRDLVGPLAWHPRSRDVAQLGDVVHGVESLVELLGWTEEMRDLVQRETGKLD
Put plainly: Sirt3 in vitro deacetylation assay (ZMAL). The assay is classed as biochemical.

Another assay concerns the target T3, Sirt2 (Homo sapiens, UniProt Q8IXJ6).
T3 construct: expressed in transfected cells; host or cells: HEK293T
T3 sequence (Q8IXJ6 1-389): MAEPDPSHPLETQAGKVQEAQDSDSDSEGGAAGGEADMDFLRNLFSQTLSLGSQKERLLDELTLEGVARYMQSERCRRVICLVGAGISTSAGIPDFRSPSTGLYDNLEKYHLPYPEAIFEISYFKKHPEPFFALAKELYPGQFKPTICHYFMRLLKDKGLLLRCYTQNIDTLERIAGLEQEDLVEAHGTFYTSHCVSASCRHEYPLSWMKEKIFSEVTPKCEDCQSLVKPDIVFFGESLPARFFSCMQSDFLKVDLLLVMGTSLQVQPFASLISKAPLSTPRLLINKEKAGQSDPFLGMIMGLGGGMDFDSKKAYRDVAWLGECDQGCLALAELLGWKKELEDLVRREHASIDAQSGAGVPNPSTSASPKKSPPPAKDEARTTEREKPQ
Put plainly: Cell-based NanoBRET assay for Sirt2 target engagement in HEK293T cells. The note with it: tracer SirReal-TAMRA 2 μM, read-out: Cellular Sirt2 target engagement IC50 (NanoBRET). For orientation: BRET reads energy transfer from a luciferase to a nearby fluorophore.

In another assay the target is T4, HDAC1 (Homo sapiens, UniProt Q13547).
T4 construct: purchased BPS Bioscience 50051
T4 sequence (Q13547 whole entry): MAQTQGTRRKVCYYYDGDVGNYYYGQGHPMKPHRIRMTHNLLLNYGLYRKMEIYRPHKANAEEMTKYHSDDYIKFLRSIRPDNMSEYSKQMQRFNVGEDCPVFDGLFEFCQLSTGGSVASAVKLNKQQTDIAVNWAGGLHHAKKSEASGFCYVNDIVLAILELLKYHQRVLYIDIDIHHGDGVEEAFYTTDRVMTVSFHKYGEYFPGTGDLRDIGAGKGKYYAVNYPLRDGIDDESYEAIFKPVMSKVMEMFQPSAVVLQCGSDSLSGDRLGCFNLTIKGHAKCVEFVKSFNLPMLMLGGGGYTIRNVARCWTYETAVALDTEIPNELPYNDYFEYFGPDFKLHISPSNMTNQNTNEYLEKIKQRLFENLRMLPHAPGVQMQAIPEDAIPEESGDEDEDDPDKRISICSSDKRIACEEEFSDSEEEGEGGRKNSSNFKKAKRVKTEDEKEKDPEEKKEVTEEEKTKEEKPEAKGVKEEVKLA
Kind of assay: HDAC1 in vitro deacetylation assay (ZMAL). The class given is biochemical.

Regarding `Cc1cc(C)nc(SCC(=O)Nc2ncc(Cc3cccc(OCc4cn(Cc5ccccc5)nn4)c3)s2)n1` [Compound 4, SirReal1.1, reference compound], in assay [1] (@ 50 μM, read-out: HGC27 percentual inhibition), the inhibition (usually the relative decrease from the control value, in per cent) at 50 µM came out at 39%. Moreover, the inhibition at 10 µM came out at 18% at HDAC6 (@ 10 μM, read-out: HDAC6 percentual inhibition) and 10% on HDAC1 (@ 10 μM, read-out: HDAC1 percentual inhibition). In assay [2] (@ 0.1 mM, read-out: MCF-7 percentual inhibition), the inhibition at 100 µM turned out to be 3%. The inhibition at 20 µM on Sirt3 is less than 15%. The IC50 (commonly the concentration that inhibits the measured activity by half) at Sirt2 amounted to 0.2 µM.
Consider `CCCCN(Cc1ccc(C(=O)NO)cc1)C(=O)CCCCn1cc(COc2cccc(Cc3cnc(NC(=O)CSc4nc(C)cc(C)n4)s3)c2)nn1` [Compound 33, 4-((N-Butyl-5-(4-((3-((2-(2-((4,6-dimethylpyrimidin-2-yl)thio)acetamido)thiazol-5-yl)methyl)phenoxy)methyl)-1H-1,2,3-triazol-1-yl)pentanamido)methyl)-N-hydroxybenzamide], for which the EC50 – broadly, the midpoint of the concentration-response curve – in assay [1] (MTS, mean ± SD) stood at 12.9 ± 0.9 µM; in assay [2] (MTT, mean ± SD) it was 21.1 ± 6.7 µM. Further, the IC50 against HDAC6 (deacetylation, mean ± SD) was found to be 0.043 ± 0.003 µM; on Sirt2 it was 0.56 µM; at HDAC1 (deacetylation, mean ± SD) it was 2.2 ± 0.2 µM. The same compound gave an inhibition at 20 µM at Sirt3 of less than 15%.
